Patent publication US9290476B2, “Methylene linked quinolinyl modulators of RORγt” (Janssen Pharmaceutica NV, priority 2012, dated 2016)
Counter-ions that a name gives are not always drawn. Like-named read-outs stand apart in the source and are kept apart here.

Legend:
[1] = system: IL-17 production by CD4 T cells; assay: Human Th17 assay (IL-17 production by CD4 T cells under Th17 differentiation); assay type: cell-based; details: human CD4+ T cells, IL-17 after 3 days, read-out: Human Th17 Assay, IC50 μM
How it was run: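 Healthy-donor peripheral CD4+ T cells (1.5×10^5/well) preincubated 1 h with titrated compound (0.2% DMSO), then differentiated with anti-CD3/CD28 beads, anti-IL4, anti-IFNγ, IL1β, IL23, IL6, TGFβ and IL2 for 3 days at 37 °C. Supernatant IL-17 quantified by MSD electrochemiluminescence against a standard curve; IC50 fitted.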

[2] = target: human RORγt ligand binding domain (RORγt LBD) (Homo sapiens (Human), UniProt P51449); assay: RORγt ThermoFluor assay (thermal shift binding affinity); details: estimated from thermal shift
Sequence of human RORγt ligand binding domain (RORγt LBD) (P51449 other isoform, or with tags, fused parts or gaps): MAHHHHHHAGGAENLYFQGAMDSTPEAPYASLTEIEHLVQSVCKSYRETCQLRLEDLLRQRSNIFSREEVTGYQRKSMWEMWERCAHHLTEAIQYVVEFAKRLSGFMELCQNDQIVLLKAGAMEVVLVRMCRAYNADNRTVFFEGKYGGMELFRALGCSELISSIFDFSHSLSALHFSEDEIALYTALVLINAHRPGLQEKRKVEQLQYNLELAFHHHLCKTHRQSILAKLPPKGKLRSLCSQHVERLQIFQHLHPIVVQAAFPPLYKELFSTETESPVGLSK
How it was run: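 Thermal shift used 0.065 mg/mL RORγt LBD with 60 μM 1,8-ANS in 100 mM Hepes pH 7.0, 10 mM NaCl, 2.5 mM GSH and 0.002% Tween-20, heated at 1 °C/min. Fluorescence was excited at 380–400 nm and emission read at 500 nm.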

[3] = target: human RORγt LBD (Homo sapiens (Human), UniProt P51449); assay: RORγt reporter assay (GAL4-RORγt LBD luciferase in HEK293T cells); assay type: cell-based; details: for RORγt reporter Assay, % inhibition @ 6 μM / IC50: HEK293T cells; for IC50: 24 hours compound treatment; for inhibition at 6 µM: HEK-293T, read-out: RORγt reporter Assay, % inhibition @ 6 μM, HEK293T cells, 6 μM
Sequence of human RORγt LBD (P51449 258-518): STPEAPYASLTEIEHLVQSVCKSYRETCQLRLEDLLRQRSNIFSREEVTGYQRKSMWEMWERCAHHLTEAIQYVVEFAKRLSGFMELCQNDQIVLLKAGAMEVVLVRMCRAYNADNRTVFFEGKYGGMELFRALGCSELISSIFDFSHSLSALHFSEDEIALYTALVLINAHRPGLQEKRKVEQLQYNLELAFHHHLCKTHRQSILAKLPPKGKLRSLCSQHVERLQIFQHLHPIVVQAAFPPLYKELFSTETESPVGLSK
How it was run: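 HEK293T cells transiently co-transfected with GAL4-DBD–wild-type human RORγt LBD (pBIND) and GAL4-responsive firefly luciferase reporter (pGL4.31); renilla luciferase from pBIND normalises transfection/viability. Cells in phenol-red-free DMEM, 5% lipid-reduced FCS, treated with compound 24 h. Firefly/renilla ratio plotted against compound concentration.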

Structure (SMILES) | IC50 ([1]; Homo sapiens, CD4+ T, 72 h) | Kd [2] | RORγt reporter Assay, % inhibition @ 6 μM [3] | IC50 [3] | inhibition at 6 µM [3] | IC50 [1]
COc1nc2c(C)cc(C(O)(c3ccc(Cl)cc3)c3cncn3C)cc2c(Cl)c1Cc1ccc(-n2cccn2)cc1 (single isomer, unassigned) [Example 28C, (3-(4-(1H-pyrazol-1-yl)benzyl)-4-chloro-2-methoxy-8-methylquinolin-6-yl)(4-chlorophenyl)(1-methyl-1H-imidazol-5-yl)methanol] | 0.066 µM | 0.0058 µM | 97% | 0.087 µM |  | 
CCc1nc2ccc(C(O)(c3cnnn3C)C3CN(C(C)=O)C3)cc2c(Cl)c1Cc1ccc(C(F)(F)F)cc1 (single isomer, unassigned) [Example 90B, 1-(3-((4-Chloro-2-ethyl-3-(4-(trifluoromethyl)benzyl)quinolin-6-yl)(hydroxy)(1-methyl-1H-1,2,3-triazol-5-yl)methyl)azetidin-1-yl)ethanone] | 0.012 µM | 0.00056 µM |  | ~0.004 µM | 98% | 
COc1nc2ccc(C(O)(c3ccc(F)cc3)c3cncn3C)cc2c(Cl)c1Cc1ccc(S(C)(=O)=O)cc1 (single isomer, unassigned) [Example 54C, (4-chloro-2-methoxy-3-(4-(methylsulfonyl)benzyl)quinolin-6-yl)(4-fluorophenyl)(1-methyl-1H-imidazol-5-yl)methanol] | 0.057 µM | 0.023 µM | 93% | 0.098 µM |  | 
CCN(C)c1nc2ccc(C(O)(c3ccc(Cl)cc3)c3cncn3C)cc2c(Cl)c1Cc1ccc(-n2cccn2)cc1 (stereo not shown) [Example 17, (3-(4-(1H-Pyrazol-1-yl)benzyl)-4-chloro-2-(ethyl(methyl)amino)quinolin-6-yl)(4-chlorophenyl)(1-methyl-1H-imidazol-5-yl)methanol.TFA] | 1.2 µM | 0.31 µM |  | 0.38 µM | 96% | 
COc1ccc(C(O)(c2ccc3nc(OC)c(Cc4ccc(-n5cccn5)cc4)c(Cl)c3c2)c2cncs2)cn1 (stereo not shown) [Example 20A, (3-(4-(1H-Pyrazol-1-yl)benzyl)-4-chloro-2-methoxyquinolin-6-yl)(6-methoxypyridin-3-yl)(thiazol-5-yl)methanol] | 0.015 µM | 0.0038 µM |  | 0.026 µM | 101% | 
Cn1cncc1C(O)(c1ccc(C(F)(F)F)nc1)c1ccc2nc(N3CCC3)c(Cc3ccc(-n4cccn4)cc3)c(Cl)c2c1 (single isomer, unassigned) [Example 68C, (3-(4-(1H-pyrazol-1-yl)benzyl)-2-(azetidin-1-yl)-4-chloroquinolin-6-yl)(1-methyl-1H-imidazol-5-yl)(6-(trifluoromethyl)pyridin-3-yl)methanol] |  | 0.03 µM | 100% | 0.21 µM |  | 0.2 µM
COc1ccc(C(O)(c2ccc3nc(OC)c(Cc4ccc(-n5cccn5)cc4)c(Cl)c3c2)c2cncs2)cn1 (single isomer, unassigned) [Example 20C, (3-(4-(1H-pyrazol-1-yl)benzyl)-4-chloro-2-methoxyquinolin-6-yl)(6-methoxypyridin-3-yl)(thiazol-5-yl)methanol] |  | 0.0053 µM | 102% | 0.06 µM |  | 0.069 µM
COc1nc2ccc(C(O)(c3ccc(Cl)cc3)c3cncn3C)cc2c(OC)c1Cc1ccc(-n2cccn2)cc1 (stereo not shown) [Example 34, (3-(4-(1H-Pyrazol-1-yl)benzyl)-2,4-dimethoxyquinolin-6-yl)(4-chlorophenyl)(1-methyl-1H-imidazol-5-yl)methanol.TFA] | 1.8 µM | 0.25 µM |  | 0.46 µM | 101% | 
COc1ccc(C(O)(c2ccc3nc(OC)c(Cc4ccc(-n5cccn5)cc4)c(Cl)c3c2)c2cncn2C)cn1 (stereo not shown) [Example 22, (3-(4-(1H-Pyrazol-1-yl)benzyl)-4-chloro-2-methoxyquinolin-6-yl)(6-methoxypyridin-3-yl)(1-methyl-1H-imidazol-5-yl)methanol.TFA] | 0.016 µM | 0.0028 µM |  | 0.091 µM | 96% | 
COc1nc2c(C)cc(C(O)(c3ccc(Cl)cc3)c3cncn3C)cc2c(Cl)c1Cc1ccc(-n2cccn2)cc1 (stereo not shown) [Example 28A, (3-(4-(1H-Pyrazol-1-yl)benzyl)-4-chloro-2-methoxy-8-methylquinolin-6-yl)(4-chlorophenyl)(1-methyl-1H-imidazol-5-yl)methanol.TFA] | 0.2 µM | 0.053 µM |  | 0.18 µM | 100% | 
COc1nc2c(F)cc(C(O)(c3ccc(C(F)(F)F)nc3)c3cncn3C)cc2c(Cl)c1Cc1ccc(-n2cccn2)cc1 (single isomer, unassigned) [Example 58B, (3-(4-(1H-pyrazol-1-yl)benzyl)-4-chloro-8-fluoro-2-methoxyquinolin-6-yl)(1-methyl-1H-imidazol-5-yl)(6-(trifluoromethyl)pyridin-3-yl)methanol] | 0.1 µM | 0.014 µM |  | 0.055 µM | 103% | 
COc1nc2ccc(C(N)(c3ccc(C)nc3C)c3cnnn3C)cc2c(Cl)c1Cc1ccc(C(F)(F)F)cc1 (single isomer, unassigned) [Example 87C, (4-Chloro-2-methoxy-3-(4-(trifluoromethyl)benzyl)quinolin-6-yl)(2,6-dimethylpyridin-3-yl)(1-methyl-1H-1,2,3-triazol-5-yl)methanamine] | 0.0045 µM | 0.0013 µM | 99% | 0.012 µM |  | 
Cc1cc(C(O)(c2ccc(C(F)(F)F)nc2)c2cncn2C)cc2c(C#N)c(Cc3ccc(-n4cccn4)cc3)c(C#N)nc12 (single isomer, unassigned) [Example 65B, 3-(4-(1H-pyrazol-1-yl)benzyl)-6-(hydroxy(1-methyl-1H-imidazol-5-yl)(6-(trifluoromethyl)pyridin-3-yl)methyl)-8-methylquinoline-2,4-dicarbonitrile] |  | 0.14 µM |  | 0.13 µM | 101% | 0.22 µM
COc1nc2ccc(C(O)(c3ccc(Cl)cc3)c3cncn3C)cc2c(Cl)c1Cc1ccc(S(C)(=O)=O)cc1 (stereo not shown) [Example 31, (4-Chloro-2-methoxy-3-(4-(methylsulfonyl)benzyl)quinolin-6-yl)(4-chlorophenyl)(1-methyl-1H-imidazol-5-yl)methanol.TFA] | 0.28 µM | 0.064 µM |  | 0.19 µM | 103% | 
CS(=O)(=O)c1ccc(Cc2c(Cl)nc3ccc(C(O)(c4cccnc4)c4cccc(Cl)c4)cc3c2Cl)cc1 (stereo not shown) [Example 8, (3-Chlorophenyl)(2,4-dichloro-3-(4-(methylsulfonyl)benzyl)quinolin-6-yl)(pyridin-3-yl)methanol.TFA] | 0.079 µM | 0.043 µM |  | 0.068 µM | 103% | 
COc1nc2ccc(C(O)(c3ccc(C(F)(F)F)nc3)c3cncn3C)cc2c(Cl)c1Cc1cc2ccccc2s1 (single isomer, unassigned) [Example 37B, (3-(benzo[b]thiophen-2-ylmethyl)-4-chloro-2-methoxyquinolin-6-yl)(1-methyl-1H-imidazol-5-yl)(6-(trifluoromethyl)pyridin-3-yl)methanol] | 0.11 µM | 0.044 µM |  | 0.16 µM | 99% | 
